Source: PMC3871185 (ACS medicinal chemistry letters, 2013)
Converted amounts (≈) assume the structure as drawn. “Also recorded” adds a separate entry of the source.

Columns and labels:
B. pseudomallei = settings: cited from earlier work
[1] = system: Burkholderia thailandensis; settings: cited from earlier work
[2] = system: clinical B. pseudomallei isolates; settings: cited from earlier work
hMetAP1 = settings: read-out: hMetAP1 IC50; cited from earlier work
hMetAP2 = settings: cited from earlier work; for IC50: read-out: hMetAP2 IC50
[3] = system: Burkholderia thailandensis
BpMetAP1 = BpMetAP1 (Burkholderia pseudomallei, UniProt Q63T11)
[4] = system: Burkholderia thailandensis; experiment: microbe, parasite or virus in culture; settings: read-out: minimum inhibitory concentration (MIC)
B. pseudomallei 1026b = assay type: cell-based, Burkholderia pseudomallei
[5] = system: B. pseudomallei strain Bp340; assay type: cell-based, Burkholderia pseudomallei

Sequence of BpMetAP1 (Q63T11 1-271): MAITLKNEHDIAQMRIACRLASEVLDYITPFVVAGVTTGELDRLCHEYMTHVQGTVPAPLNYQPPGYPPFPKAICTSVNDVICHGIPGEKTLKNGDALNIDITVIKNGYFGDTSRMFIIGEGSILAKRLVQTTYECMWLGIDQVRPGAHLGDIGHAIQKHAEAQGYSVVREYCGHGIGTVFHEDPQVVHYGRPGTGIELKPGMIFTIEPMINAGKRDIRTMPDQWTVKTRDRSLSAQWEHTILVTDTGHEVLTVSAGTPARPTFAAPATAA

| Compound | growth inhibition of B. thailandensis (in words) [3] | BpMetAP1 inhibition potency (in words) (BpMetAP1) | also measured |
| --- | --- | --- | --- |
| NC[C@H]1O[C@H](O[C@H]2[C@H](O)[C@@H](O[C@H]3O[C@H](CO)[C@@H](O)[C@H](N)[C@H]3O)[C@H](N)C[C@@H]2N)[C@H](O)[C@@H](O)[C@@H]1O [Km, kanamycin] |  |  | killing of B. pseudomallei (B. pseudomallei): complete killing; killing of B. thailandensis [1]: complete killing |
| CC(C)(O/N=C(\C(=O)N[C@@H]1C(=O)N2C(C(=O)[O-])=C(C[n+]3ccccc3)CS[C@H]12)c1csc(N)n1)C(=O)O [ceftazidime] |  |  | MIC [2]: 1 to 6 µg/mL |
| O=S(=O)(O)c1ccc(O)c2ncccc12 [compound 1] |  |  | IC50 (hMetAP1): > 15 µM; IC50 (hMetAP2): > 15 µM |
| Cc1ccc2cccc(O)c2n1 [compound 2, reference compound] | inhibited cell growth | inactive | IC50 (hMetAP1): > 15 µM; IC50 (hMetAP2): > 15 µM |
| Oc1cccc2cccnc12 [compound 3, reference compound] | inhibited cell growth |  | IC50 (hMetAP1): > 15 µM |
| Oc1c(CN2CCCCC2)cc(Cl)c2cccnc12 [compound 5] |  | Met-AP inhibition |  |
| Oc1c(CN2CCSCC2)cc(Cl)c2cccnc12 [compound 7] | inhibited cell growth |  |  |
| O=[N+]([O-])c1ccc(O)c2ncccc12 [compound 9, 5-nitro-8-hydroxyquinoline] | potent growth inhibitors; also recorded: inhibition of cell growth | Met-AP inhibition | MIC [4]: ~6 µg/mL (≈ 31.6 µM); inhibition of B. pseudomallei 1026b (B. pseudomallei 1026b): no difference in inhibition compared to Bp340; IC50 (hMetAP1): > 15 µM; growth inhibition of B. pseudomallei Bp340 [5]: complete growth inhibition; activity against human MetAP2 in vitro (hMetAP2): nanomolar range |
| O=[N+]([O-])c1cc(CN2CCCCC2)c(O)c2ncccc12 [compound 10] | inactive | decreased potency |  |
| CN(C)Cc1cc([N+](=O)[O-])c2cccnc2c1O [compound 11] | potent growth inhibitors; also recorded: inhibition of cell growth |  |  |
| O=[N+]([O-])c1cc(CN2CCCC2)c(O)c2ncccc12 [compound 12] | potent growth inhibitors; also recorded: inhibition of cell growth |  |  |
| O=[N+]([O-])c1cc(CN2CCOCC2)c(O)c2ncccc12 [compound 13] |  | decreased potency |  |
| O=[N+]([O-])c1cc(CN2CCSCC2)c(O)c2ncccc12 [compound 14] |  | decreased potency |  |
| CN1CCN(Cc2cc([N+](=O)[O-])c3cccnc3c2O)CC1 [compound 15] | potent growth inhibitors; also recorded: inhibition of cell growth; also recorded: nearly complete cell growth inhibition |  |  |
| Cc1ccc(CSc2nnc(N)[nH]2)cc1 [compound 16] |  | low micromolar range |  |
| Nc1nnc(SCc2ccc(F)cc2)[nH]1 [compound 17] |  | low micromolar range |  |
| Nc1nnc(SCc2ccc(Cl)cc2Cl)[nH]1 [compound 18] |  | low micromolar range |  |
| O=C(O)c1ccc(-c2ccccc2Cl)o1 [compound 22, reference compound] | essentially no ability to inhibit bacterial growth |  |  |
| O=C(O)c1ccc(-c2cc(Cl)ccc2Cl)o1 [compound 23, reference compound] | essentially no ability to inhibit bacterial growth |  |  |
| O=C(O)c1cc(Br)ccc1NS(=O)(=O)c1ccc(Cl)cc1 [compound 25] | nor the sulfonamide (24 and 25) derivatives demonstrated significant growth inhibition |  |  |
